# Data from ChEMBL document CHEMBL3588804, “Structure-activity relationship studies on acremomannolipin A, the potent calcium signal modulator with a novel glycolipid structure 3: role of the length of alditol side chain” (Bioorg Med Chem, 2015).
# Activity calls are given as the source filed them. No cut-off for these calls is given here.
# Tested on: Schizosaccharomyces pombe
# Assay: Suppression of Cl- sensitive growth defect in calcineurin gene deleted Schizosaccharomyces pombe (h+ leu1 ura4-D18 ppb1::ura4+) at 100 uM after 3 days by filter paper disk assay in presence of 0.11 M MgCl2 in YPD medium
row,Structure (SMILES),Activity
1,CCCCCCCC(=O)O[C@@H]1[C@H](OC[C@@H](O)[C@@H](O)[C@H](O)[C@H](O)[C@@H](O)CO)O[C@H](COC(=O)CCCCC)[C@@H](OC(=O)CCCCC)[C@@H]1OC(=O)CCCCC,Active
2,CCCCCCCC(=O)O[C@@H]1[C@H](OCCO)O[C@H](COC(=O)CCCCC)[C@@H](OC(=O)CCCCC)[C@@H]1OC(=O)CCCCC,inactive
3,CCCCCCCC(=O)O[C@@H]1[C@H](OC[C@@H](O)[C@@H](O)[C@H](O)[C@H](O)CO)O[C@H](COC(=O)CCCCC)[C@@H](OC(=O)CCCCC)[C@@H]1OC(=O)CCCCC,Active
4,CCCCCCCC(=O)O[C@@H]1[C@H](OC[C@@H](O)[C@@H](O)CO)O[C@H](COC(=O)CCCCC)[C@@H](OC(=O)CCCCC)[C@@H]1OC(=O)CCCCC,Active
5,CCCCCCCC(=O)O[C@@H]1[C@H](OC[C@@H](O)[C@@H](O)[C@H](O)CO)O[C@H](COC(=O)CCCCC)[C@@H](OC(=O)CCCCC)[C@@H]1OC(=O)CCCCC,Active
6,CCCCCCCC(=O)O[C@@H]1[C@H](OC[C@@H](O)CO)O[C@H](COC(=O)CCCCC)[C@@H](OC(=O)CCCCC)[C@@H]1OC(=O)CCCCC,inactive
